# Experimental data from article PMC5418314, “First-in-human phase I study of SOR-C13, a TRPV6 calcium channel inhibitor, in patients with advanced solid tumors” (Investigational New Drugs, 2017).
# Ends that are not written are not given here.
# How the values were obtained:
# [1] = GLP toxicology study, daily IV bolus for 28 days, rat; format: in vivo
# Experimental: Anatomical pathology provided a No Observable Adverse Effect Level (NOAEL) of 200 mg/kg/day for rats. […] With results indicating antitumor activity in animal studies, a small toxicological footprint, a novel oncology target and a mechanism of action supported by the literature, SOR-C13 was formulated for intravenous injection (IV) for clinical evaluation. Here we present results of the ‘first-in-human’, Phase I clinical study evaluating SOR-C13 in adults with advanced solid tumors of epithelial origin refractory to all standard-of-care treatments.
# [2] = test system: voltage-gated sodium channels; test: voltage-gated sodium channel activity; format: biochemical
# [3] = Phase I safety and tolerability (NCI CTCAE v4.0, DLT) in patients with advanced solid tumors; format: in vivo, human
# Experimental: Dose-escalation was carried out according to a standard 3 + 3 design. At each dose level, cohorts of 3 to 6 patients were scheduled to receive two 21-day cycles of SOR-C13 treatment. SOR-C13 was administered on days 1–3 and 8–10 of the 21-day cycle was administered by IV infusion. The study drug (500 mg/vial) was dissolved in water for injection (2 mL) and diluted in saline prior to infusion to provide a 250 mL (total) infusion volume. Infusion time was increased after the first five patients from the initial 20 min to 90 min with the aim of increasing the safety and tolerability of the drug. In the event of clinically meaningful response (tumor response or stable disease), additional SOR-C13 cycles were offered to study patients. Post-treatment follow-up was completed one and two months after completion of SOR-C13 treatment.
# A Safety Monitoring Committee (SMC) oversaw the safety aspects of the study. Safety endpoints included: incidence of adverse events (AEs) and serious AEs (SAEs), withdrawals due to AEs, Dose Limiting Toxicities (DLTs), infusion reactions, deaths on study, vital signs, electrocardiogram (ECGs), clinical laboratory parameters and changes to the treatment regimen (dose delay, dose decrease) due to AEs. The National Cancer Institute (NCI) Common Terminology Criteria for Adverse Events (CTCAE) Version 4.0 was used to grade the severity of AEs.
# Based on the safety data from the first two cohorts, the regulatory authorities approved a revision of the definition to “one occurrence of ≥Grade 3 toxicity or one occurrence of Grade 2 hypocalcemia, over the first 21-day cycle”. The latter definition was used for the subsequent four cohorts in the study.
# [4] = Cohort 1 5.5 mg/kg N = 3, 20-min infusions
# [5] = Cohort 1, 5.50 mg/kg, C1 D2, Dose# 2
# [6] = Cohort 1, 5.50 mg/kg, C1 D8, Dose# 4
# [7] = Cohort 2 2.75 mg/kg N = 2, 20-min infusions
# [8] = Cohort 2, 2.75 mg/kg, C1 D2, Dose# 2
# [9] = Cohort 3 1.375 mg/kg N = 3, 90-min infusions
# [10] = Cohort 4 2.75 mg/kg N = 6, 90-min infusions
# [11] = Cohort 4, 2.75 mg/kg, C1 D3, Dose# 3
# [12] = Cohort 5 4.13 mg/kg N = 3, 90-min infusions
# [13] = Cohort 6 6.20 mg/kg N = 6, 90-min infusions
# [14] = Cohort 6, 6.20 mg/kg, C1 D8, Post 3
# [15] = Cohort 6, 6.20 mg/kg, C1 D18, Post 6
sequence,measurement,setting,value
KEFLHPSKVDLPR [SOR-C13],antigenicity,[1],no antigenicity
same,cardiovascular toxicity,[1],no cardiovascular toxicity
same,toxicity,[1],minimal toxicity
same,modulation of channel activity,[2],no modulation of channel activity
same,"Any TEAEs, Event",[3]; All Patients N = 23,185
same,"TEAEs Definitely related, Event",[3]; All Patients N = 23,5
same,"TEAEs Possibly related, Event",[3]; All Patients N = 23,29
same,"TEAEs Probably related, Event",[3]; All Patients N = 23,7
same,"TEAEs Remotely/Unlikely related, Event",[3]; All Patients N = 23,10
same,"TEAEs Remotely/Unlikely related, Patient",[3]; All Patients N = 23,4 (17)
same,"TEAEs Unrelated, Event",[3]; All Patients N = 23,134
same,"TEAEs Unrelated, Patient",[3]; All Patients N = 23,21 (91)
same,"Any TEAEs, Event",[3]; [4],49
same,"Any TEAEs, Patient",[3]; [4],3 (100)
same,"TEAEs Definitely related, Event",[3]; [4],5
same,"TEAEs Definitely related, Patient",[3]; [4],2 (67)
same,"TEAEs Possibly related, Event",[3]; [4],3
same,"TEAEs Possibly related, Patient",[3]; [4],2 (67)
same,"TEAEs Probably related, Event",[3]; [4],3
same,"TEAEs Probably related, Patient",[3]; [4],2 (67)
same,"TEAEs Remotely/Unlikely related, Event",[3]; [4],4
same,"TEAEs Remotely/Unlikely related, Patient",[3]; [4],1 (33)
same,"TEAEs Unrelated, Event",[3]; [4],34
same,"TEAEs Unrelated, Patient",[3]; [4],3 (100)
same,"DLT Blood calcium decreased, Relationship",[3]; [5],Probably related
same,"DLT Blood calcium decreased, Severity",[3]; [5],Grade 2
same,"DLT Blood calcium decreased, Relationship",[3]; [6],Definitely related
same,"DLT Blood calcium decreased, Severity",[3]; [6],Grade 2
same,"Any TEAEs, Event",[3]; [7],11
same,"Any TEAEs, Patient",[3]; [7],2 (100)
same,"TEAEs Definitely related, Event",[3]; [7],0
same,"TEAEs Definitely related, Patient",[3]; [7],0 (0)
same,"TEAEs Possibly related, Event",[3]; [7],0
same,"TEAEs Possibly related, Patient",[3]; [7],0 (0)
same,"TEAEs Probably related, Event",[3]; [7],1
same,"TEAEs Probably related, Patient",[3]; [7],1 (50)
same,"TEAEs Remotely/Unlikely related, Event",[3]; [7],0
same,"TEAEs Remotely/Unlikely related, Patient",[3]; [7],0 (0)
same,"TEAEs Unrelated, Event",[3]; [7],10
same,"TEAEs Unrelated, Patient",[3]; [7],2 (100)
same,"DLT Blood calcium decreased, Relationship",[3]; [8],Probably related
same,"DLT Blood calcium decreased, Severity",[3]; [8],Grade 2
same,"Any TEAEs, Event",[3]; [9],25
same,"Any TEAEs, Patient",[3]; [9],3 (100)
same,"TEAEs Definitely related, Event",[3]; [9],0
same,"TEAEs Definitely related, Patient",[3]; [9],0 (0)
same,"TEAEs Possibly related, Event",[3]; [9],0
same,"TEAEs Possibly related, Patient",[3]; [9],0 (0)
same,"TEAEs Probably related, Event",[3]; [9],0
same,"TEAEs Probably related, Patient",[3]; [9],0 (0)
same,"TEAEs Remotely/Unlikely related, Event",[3]; [9],2
same,"TEAEs Remotely/Unlikely related, Patient",[3]; [9],1 (33)
same,"TEAEs Unrelated, Event",[3]; [9],23
same,"TEAEs Unrelated, Patient",[3]; [9],3 (100)
same,frequency of drug-related TEAEs,"[3]; Cohort 3 (1.375 mg/kg), 90-min infusions",0%
same,"Any TEAEs, Event",[3]; [10],52
same,"Any TEAEs, Patient",[3]; [10],6 (100)
same,"TEAEs Definitely related, Event",[3]; [10],0
same,"TEAEs Definitely related, Patient",[3]; [10],0 (0)
same,"TEAEs Possibly related, Event",[3]; [10],11
same,"TEAEs Possibly related, Patient",[3]; [10],4 (67)
same,"TEAEs Probably related, Event",[3]; [10],0
same,"TEAEs Probably related, Patient",[3]; [10],0 (0)
same,"TEAEs Remotely/Unlikely related, Event",[3]; [10],4
same,"TEAEs Remotely/Unlikely related, Patient",[3]; [10],2 (33)
same,"TEAEs Unrelated, Event",[3]; [10],37
same,"TEAEs Unrelated, Patient",[3]; [10],6 (100)
same,frequency of drug-related TEAEs,"[3]; Cohort 4 (2.75 mg/kg), 90-min infusions",67%
same,"DLT Ionized calcium decreased, Relationship",[3]; [11],Possibly related
same,"DLT Ionized calcium decreased, Severity",[3]; [11],Grade 2
same,"Any TEAEs, Event",[3]; [12],14
same,"Any TEAEs, Patient",[3]; [12],3 (100)
same,"TEAEs Definitely related, Event",[3]; [12],0
same,"TEAEs Definitely related, Patient",[3]; [12],0 (0)
same,"TEAEs Possibly related, Event",[3]; [12],5
same,"TEAEs Possibly related, Patient",[3]; [12],3 (100)
same,"TEAEs Probably related, Event",[3]; [12],3
same,"TEAEs Probably related, Patient",[3]; [12],1 (33)
same,"TEAEs Remotely/Unlikely related, Event",[3]; [12],0
same,"TEAEs Remotely/Unlikely related, Patient",[3]; [12],0 (0)
same,"TEAEs Unrelated, Event",[3]; [12],6
same,"TEAEs Unrelated, Patient",[3]; [12],2 (67)
same,frequency of drug-related TEAEs,"[3]; Cohort 5 (4.13 mg/kg), 90-min infusions",100%
same,"Any TEAEs, Event",[3]; [13],34
same,"Any TEAEs, Patient",[3]; [13],6 (100)
same,"TEAEs Definitely related, Event",[3]; [13],0
same,"TEAEs Definitely related, Patient",[3]; [13],0 (0)
same,"TEAEs Possibly related, Event",[3]; [13],10
same,"TEAEs Possibly related, Patient",[3]; [13],6 (100)
same,"TEAEs Probably related, Event",[3]; [13],0
same,"TEAEs Probably related, Patient",[3]; [13],0 (0)
same,"TEAEs Remotely/Unlikely related, Event",[3]; [13],0
same,"TEAEs Remotely/Unlikely related, Patient",[3]; [13],0 (0)
same,"TEAEs Unrelated, Event",[3]; [13],24
same,"TEAEs Unrelated, Patient",[3]; [13],5 (83)
same,frequency of drug-related TEAEs,"[3]; Cohort 6 (6.20 mg/kg), 90-min infusions",100%
same,"DLT Atrial fibrillation, Relationship",[3]; [14],Unrelated
same,"DLT Atrial fibrillation, Severity",[3]; [14],Grade 3
same,"DLT Anaemia, Relationship",[3]; [15],Unrelated
same,"DLT Anaemia, Severity",[3]; [15],Grade 3
same,Grade 4 TEAEs,[3]; N = 23,No Grade 4 TEAE occurred
same,"TEAEs by MedDRA SOC: Gastrointestinal disorders, patients",[3]; N = 23,48%
same,"TEAEs by MedDRA SOC: General disorders and administration site conditions, patients",[3]; N = 23,44%
same,"TEAEs by MedDRA SOC: Infections and infestations, patients",[3]; N = 23,48%
same,"TEAEs by MedDRA SOC: Investigations, patients",[3]; N = 23,44%
same,"TEAEs by MedDRA SOC: Metabolism and nutrition disorders, patients",[3]; N = 23,65%
same,drug-related Serious Adverse Events (SAEs),[3]; N = 23,No drug-related Serious Adverse Events (SAEs) occurred
same,"TEAE Anaemia, percentage of patients","[3]; N = 23, MedDRA preferred term",30%
same,"TEAE Aspartate amino transferase increased, percentage of patients","[3]; N = 23, MedDRA preferred term",17%
same,"TEAE Blood Calcium Decreased, percentage of patients","[3]; N = 23, MedDRA preferred term",22%
same,"TEAE Blood alkaline phosphatase increased, percentage of patients","[3]; N = 23, MedDRA preferred term",13%
same,"TEAE Constipation, percentage of patients","[3]; N = 23, MedDRA preferred term",17%
same,"TEAE Cough, percentage of patients","[3]; N = 23, MedDRA preferred term",17%
same,"TEAE Decreased Appetite, percentage of patients","[3]; N = 23, MedDRA preferred term",22%
same,"TEAE Diarrhoea, percentage of patients","[3]; N = 23, MedDRA preferred term",13%
same,"TEAE Fatigue, percentage of patients","[3]; N = 23, MedDRA preferred term",30%
same,"TEAE Hypercalcaemia, percentage of patients","[3]; N = 23, MedDRA preferred term",13%
same,"TEAE Hyperkalaemia, percentage of patients","[3]; N = 23, MedDRA preferred term",13%
same,"TEAE Hypoalbuminaemia, percentage of patients","[3]; N = 23, MedDRA preferred term",30%
same,"TEAE Hypocalcaemia, percentage of patients","[3]; N = 23, MedDRA preferred term",13%
same,"TEAE Nausea, percentage of patients","[3]; N = 23, MedDRA preferred term",22%
same,"TEAE Urinary Tract Infection, percentage of patients","[3]; N = 23, MedDRA preferred term",30%
same,total number of Grade 3 TEAEs,"[3]; N = 23, in thirteen patients",18
same,patients with DLTs,"[3]; all cohorts, N = 23, first 21-day cycle",26.1%
same,"drug-related blood calcium decrease, patients",[3]; all patients N = 23,13%
same,"drug-related decreased appetite, patients",[3]; all patients N = 23,9%
same,"drug-related hypoalbuminemia, patients",[3]; all patients N = 23,30%
same,"drug-related hypocalcemia, patients",[3]; all patients N = 23,13%
same,"drug-related increased aspartate aminotransferase (AST), patients",[3]; all patients N = 23,9%
same,Maximal Tolerated Dose (MTD),[3]; doses up to 6.2 mg/kg,not established
same,"drug-related hypocalcemia, patients",[3]; patients receiving 90-min infusions (n = 18),13%
same,patients with TEAEs related to the study drug,"[3]; possibly, probably or definitely related, total population N = 23",70%
same,Grade 3 TEAEs assessed as related to the study drug,"[3]; urticaria, ALT increased, AST increased, headache, hypokalaemia",Five of the 18
same,deaths during treatment or post-treatment follow-up,[3]; within two months after the last study drug administration,No deaths occurred
